The results in this text go back to patent publication US12319721B2 (Purdue Research Foundation, priority 2018, dated 2025).

The subject of assay [1] is fracture callus of fractured femur. The experiment in a line: Femur fracture model, microCT of the fracture callus (BV/TV, BV, TbTh, TbSp). The class given is in vivo, Swiss Webster mice. An excerpt:
All in vivo data included herein are from Swiss Webster mice. […] 1×concentration represents 1 nmol/day, 10× represents 10 nmol/day, 100×represents 100 nmol/day and most studies have an n of 5.
The term “BV/TV” means the bone volume divided by total volume of the 100 thickest micro CT slices of the fracture callus.
The term “TbTh” means the trabecular thickness of the 100 thickest micro CT slices of the fracture callus.
The term “[…]” means the overall bone volume of the 100 thickest micro CT slices of the fracture callus.
The term “TbSp” means the spacing between the trabecula in the 100 thickest micro CT slices of the fracture callus.
The targeted conjugates were synthesized using standard Fmoc solid-phase peptide synthesis, as described above. To ensure the conjugates' activity, mouse pre osteo-blast (MCTC3-1) cells were treated with the targeted and untargeted compounds for three days at concentrations from 1 pM to 100 nM. After three days of treatment, the cells were harvested, and the ribonucleic acid (RNA) was purified from the cells. Expression levels of ALP, RUNx2, OSX, osteo-pontin (OPN), collagen 1A (Col-1A), OPG, RANKL, scle-rostin gene (SOST), and OC were quantified via quantitative reverse transcription polymerase chain reaction (RT-qPCR). Once the biological activity of the conjugates was confirmed, they were tested in vivo in a fracture model. Aseptic surgical techniques were used to place a 23-gage needle as in intramedullary nail in the femur of anesthetized, 12-week-old Swiss Webster mice for internal fixation before fracture. Femur fractures were induced using a drop weight fracture device from RISystem. The mice received buprenorphine for three days post fracture. […] Fracture healing was assessed using microCT (Scanco Medical Ag). Morphometric parameters were quantified in the 100 widest slices of the fracture callus. Trabecular thickness (TbTh), trabecular spacing (TbSp), total volume (TV), and volume of calcified callus (BV) were calculated. Fractured femurs were tested for strength in a four-point bend to failure using an Electro Force TestBench (TA Instruments). Lower supports were 10 mm apart on the anterior face of the femur in contact with the proximal and distal diaphysis. Upper supports were 4 mm apart and spanned the entire fracture callus on the diaphysis. Force was applied from the posterior face of the femur with a displacement rate of 0.3 mm/sec. Peak load, yield load, stiffness, displacement post yield, work to fracture, and deformation data were generated. Statistical analysis was performed using a two-way analysis of variance (ANOVA) and a Tukey post-hoc analysis with significance reported at the 95% confidence level. All animal experiments were performed in accordance with protocols approved by Purdue University's Institutional Animal Care and Use Committee (IACUC).

Assay [2] concerns healed fractured femur. The assay can be described thus: Femur fracture model, postmortem four-point bend of the healed femur. The class given is in vivo, Swiss Webster mice. The conditions noted are these: for Max load (bone strength) / Work to fracture (bone strength): n=5. An excerpt:
All in vivo data included herein are from Swiss Webster mice. All mice received an osteotomy on their right femur and received subcutaneous drug administration daily for either 2, 3 or 4 weeks, as indicated, for each compound. 1×concentration represents 1 nmol/day, 10× represents 10 nmol/day, 100×represents 100 nmol/day and most studies have an n of 5.
The term “Peak Load” means a postmortem 4 point bend of the healed femur. Peak load represents the maximum force the healed femur withstood before it refractured.
The targeted conjugates were synthesized using standard Fmoc solid-phase peptide synthesis, as described above. To ensure the conjugates' activity, mouse pre osteo-blast (MCTC3-1) cells were treated with the targeted and untargeted compounds for three days at concentrations from 1 pM to 100 nM. After three days of treatment, the cells were harvested, and the ribonucleic acid (RNA) was purified from the cells. Expression levels of ALP, RUNx2, OSX, osteo-pontin (OPN), collagen 1A (Col-1A), OPG, RANKL, scle-rostin gene (SOST), and OC were quantified via quantitative reverse transcription polymerase chain reaction (RT-qPCR). Once the biological activity of the conjugates was confirmed, they were tested in vivo in a fracture model. Aseptic surgical techniques were used to place a 23-gage needle as in intramedullary nail in the femur of anesthetized, 12-week-old Swiss Webster mice for internal fixation before fracture. Femur fractures were induced using a drop weight fracture device from RISystem. The mice received buprenorphine for three days post fracture. The mice were dosed subcutaneously each day for two weeks, three weeks, 4 weeks, or 17 days. Fracture healing was assessed using microCT (Scanco Medical Ag). Morphometric parameters were quantified in the 100 widest slices of the fracture callus. Trabecular thickness (TbTh), trabecular spacing (TbSp), total volume (TV), and volume of calcified callus (BV) were calculated. Fractured femurs were tested for strength in a four-point bend to failure using an Electro Force TestBench (TA Instruments). Lower supports were 10 mm apart on the anterior face of the femur in contact with the proximal and distal diaphysis. Upper supports were 4 mm apart and spanned the entire fracture callus on the diaphysis. Force was applied from the posterior face of the femur with a displacement rate of 0.3 mm/sec. Peak load, yield load, stiffness, displacement post yield, work to fracture, and deformation data were generated. Statistical analysis was performed using a two-way analysis of variance (ANOVA) and a Tukey post-hoc analysis with significance reported at the 95% confidence level. All animal experiments were performed in accordance with protocols approved by Purdue University's Institutional Animal Care and Use Committee (IACUC).

The mark [3] stands for this setting: 3 weeks, 0.1, 1 and 10 nmol daily subcutaneous.
The mark [4] stands for this setting: 3 weeks, 0.1, 1 and 10 nmol daily subcutaneous, n=5.
Setting [5] is: 2 weeks, various concentrations 1-100 nmol/day, subcutaneous daily.
Setting [6] is: 3 weeks, 1, 10 and 100 nmol daily subcutaneous, n=5.
[7] abbreviates: 3 weeks, 1, 10 and 100 nmol daily subcutaneous.
The mark [8] stands for this setting: 4 weeks, various concentrations (1, 10 and in part 100 nmol/day), subcutaneous daily.
The mark [9] stands for this setting: 1 μmol/kg, subcutaneous, every-other-day, CFW Swiss Webster mice.

Bridges are numbered along the chain shown (N, C = ends). Roman numbers before positions name the chains, in order. Where no end group is shown, it is not given here. [ ]: non-standard residue; d: D form. The star is where a group is joined. mini PEG = minipeg spacer; Nle = CCCC[C@H](N)C(=O)O; Octanoyl = CCCCCCCC(=O)*; Dap = NC[C@H](N)C(=O)O

With “B2A_mp4_(D)E10: two B2A branches (SEQ ID NO: 44) conjugated to e10 (D-glutamic acids), SEQ ID NO: 19, FIG. 35 (AIS[Nle]LYLDENEKVVLK; not fully specified; also: C-terminal Lys carries branching Lys-Ahx3-D-Glu10 moiety)”, the “BV/TV (bone density)” value in assay [1] (setting [3]) is listed as “raises bone density”. In addition, the “BV (bone volume, bone mineralization)” value in assay [1] (setting [4]) was “raises bone mineralization”. Moreover, in assay [2] (setting [3]), the “Max load (bone strength)” value was “raises bone strength” and the “Work to fracture (bone strength)” value is “raises bone strength”.

As to “BFP-D10: bone forming peptide conjugated with 10 aspartate acids, SEQ ID NO: 1, DDDDDDDDDDGQGFSYPYKA VFSTQ (DDDDDDDDDDGQGFSYPYKAVFSTQ; 10 aspartates)”, in assay [1] (setting [5]), the BV/TV entry is “dose dependent manner” and the TbSp result is reported as “dose dependent manner”. Moreover, the “Peak load of fractured femurs (ranking, compared to PBS)” value in assay [2] (after 2 weeks, 100 nmol/day (100×)) is listed as “obtained the maximum peak load”.

For the molecule “CBM D10: collagen binding motif of osteopontin conjugated with 10 aspartate acids, SEQ ID NO: 9, FIG. 33”, the “BV/TV (bone density)” value in assay [1] (setting [3]) was “dose dependent manner”.

Consider “F2A_mp4_(D)E10: two copies of FGF2 receptor targeting sequence YRSRKYSSWYVALKR branching from a lysine, 4 mini pegs, 10 D glutamic acids”, for which the “BV/TV (bone density)” value in assay [1] (setting [3]) is recorded as “raises bone density”. Besides, in assay [1] (setting [4]), the “BV (bone volume, bone mineralization)” value is “raises bone mineralization”. In addition, in assay [2] (setting [3]), the “Max load (bone strength)” value is reported as “raises bone strength” and the “Work to fracture (bone strength)” value is recorded as “raises bone strength”.

On to “F119_mp4 (D)E10: heparin binding fragment 119-135 of FGF2 with mp4 linker and 10 glutamic acids, SEQ ID NO: 20, FIG. 84 (KRTGQYKLGSKTGPGQK; mp4 linker, 10 D-glutamic acids; SITE 17 C-term Lysine modified with 4 mini PEG linker-d(Glutamic acid)10 moiety)”, for which, in assay [1] (setting [6]), the “BV (bone volume, bone mineralization)” value is on record as “raises bone mineralization” and the “BV/TV (bone density)” value was “raises bone density”. In assay [2] (setting [7]), the “Max load (bone strength)” value is recorded as “raises bone strength” and the “Work to fracture (bone strength)” value was “raises bone strength”.

Consider “Ghrelin-D 10: Ghrelin D10 with Ser-3 replaced with diaminopropionic acid modified with an octanoyl group sidechain, SEQ ID NO: 5 (GS[Dap](Octanoyl)FLSPEHQKAQQRKESKKPPAKLQPRDDDDDDDDDD)”, for which the BV/TV entry in assay [1] (setting [8]) is reported as “dose dependent manner”.

Turning to “MGF D10: Mechano-growth factor conjugated with 10 aspartate acids, SEQ ID NO: 11, DDDDDDDDDDYQPPSTNKNTKSQRRKGSTFEEHK (10 aspartates)”, in assay [1] (setting [8]), the BV/TV entry is listed as “dose dependent manner”.

Turning to “ODP D10: Osteopontin-derived peptide conjugated with 10 aspartate acids via 4 mini PEG, SEQ ID NO: 13 (DDDDDDDDDD[mini PEG][mini PEG][mini PEG][mini PEG]DVDVPDGRGDSLAYG)”, the BV/TV result in assay [1] (4 weeks, 1 nmol/day (1×)) is “healing was reflected as BV/TV”.

For “OGP-D10: osteogenic growth peptide conjugated with 10 aspartate acids, SEQ ID NO: 2, DDDDDDDDDDALKRQGRTL YGFGG (DDDDDDDDDDALKRQGRTLYGFGG; 10 aspartates)”, in assay [1] (setting [5]), the BV/TV result is “dose dependent manner”, the TbSp result is “dose dependent manner” and the TbTh entry is “dose dependent manner”.

For the molecule “P4 D10: P4 (BMP-2 knuckle epitope fragment) conjugated with 10 aspartate acids, SEQ ID NO: 10 (HKIPKASSVPTELSAISTLYLDDDDDDDDDD; 10 aspartates)”, the BV/TV result in assay [1] (setting [8]) was “dose dependent manner”.

As to “Preptin D10: Preptin conjugated with 10 aspartate acids, SEQ ID NO: 3, FIG. 29 (DVSTSQAVLPDDFPRYDDDDDDDDDD; 10 aspartates)”, in assay [1] (setting [5]), the BV/TV result is reported as “dose dependent manner”, the TbTh result is recorded as “dose dependent manner” and the “bone volume (BV)” value was “dose dependent manner”.

Regarding “pBMP9 D 10: peptide from BMP-9 knuckle epitope conjugated with D10, SEQ ID NO: 6/14, FIG. 27 (chain 1 CGGKVGKACCVPTKLSPISVLYK; chain 2 CGGKVGKACCVPTKLSPISVLVK; not fully specified (C-terminus); cysteine pairing not given here; also: the two chains differ at position 22 (Y vs V))”, in assay [1] (4 weeks, 1, 10 and 100 nmol/day, subcutaneous daily), the “bone volume (BV)” value is recorded as “dose dependent manner”. The BV/TV entry in assay [1] (setting [8]) is “dose dependent manner”.

Turning to “targeted E738 conjugate: Src inhibitor E738 conjugated with D10 (10 aspartic acids, SEQ ID NO: 30), FIG. 4 (DDDDDDDDDD; not fully specified (C-terminus); also: conjugated to Src inhibitor E738)”, in assay [1] (setting [9]), the “Trabecular Thickness at the fracture callus” value is reported as “significantly improved” and the “bone density (BV/TV) at the fracture callus” value is “significantly improved”.

B1: CNP D10: C-type Natriuretic peptide conjugated with 10 aspartate acids, SEQ ID NO: 7/16, FIG. 30 (peptide)
chain 1: DDDDDDDDDDGLSKGCFGLKLDRIGSMSGLGC
chain 2: B1 chain 1
modifications: disulfide I:16-I:32, II:16-II:32; not fully specified
B1: in assay [1] (setting [8]), the BV/TV result is given as “dose dependent manner”.

B2: VIP D10: Vasoactive intestinal peptide conjugated with D10, SEQ ID NO: 8/17, FIG. 31 (peptide)
chain 1: HSDAVFTDNYTRLRKQMAVKKYLNSILNDDDDDDDDDD
chain 2: B2 chain 1
modifications: 10 aspartates
Consider B2, for which, in assay [1] (4 weeks, 1 nmol/day (1×)), the BV/TV result is “healing was reflected as BV/TV” and the TbTh result is “healing was reflected”.
